{"source": "patent US8981150B2", "about": "(priority 2009, dated 2015)", "experiment": "Solubility in water"}
{"smiles": "CCCC(OCC)C(=O)N(C)C", "note": "(stereo not shown) [Product 7]", "values": [{"measurement": "Solubility in water (% w/w)", "value": "<0.1", "unit": "% w/w"}]}
{"smiles": "CCCC(OC)C(=O)N(C)C", "note": "(stereo not shown) [Product 6]", "values": [{"measurement": "Solubility in water (% w/w)", "value": "<0.1", "unit": "% w/w"}]}
{"smiles": "CCCCC(OC)C(=O)N(C)C", "note": "(stereo not shown) [Product 4]", "values": [{"measurement": "Solubility in water (% w/w)", "value": "<0.05", "unit": "% w/w"}]}
{"smiles": "CCCCC(OCC)C(=O)N(C)C", "note": "(stereo not shown) [Product 5]", "values": [{"measurement": "Solubility in water (% w/w)", "value": "<0.05", "unit": "% w/w"}]}
